The target in data set [1] is T1, CYP2C9 (Homo sapiens, UniProt P11712). Particulars: AUCI/AUC with multiple doses of efavirenz (steady state Cmax); CYP2C9 substrates.
Data set [2] concerns the target T2, CYP2C19 (Homo sapiens, UniProt P33261). Particulars: fraction of substrate metabolized by the inhibited CYP pathway (CYP2C19); cited from earlier work.
In data set [3] the test system is CYP2B6. The note with it: cited from earlier work.
Data set [4] concerns the target T3, CYP2C8 (Homo sapiens, UniProt P10632).
T3 sequence (P10632 1-490): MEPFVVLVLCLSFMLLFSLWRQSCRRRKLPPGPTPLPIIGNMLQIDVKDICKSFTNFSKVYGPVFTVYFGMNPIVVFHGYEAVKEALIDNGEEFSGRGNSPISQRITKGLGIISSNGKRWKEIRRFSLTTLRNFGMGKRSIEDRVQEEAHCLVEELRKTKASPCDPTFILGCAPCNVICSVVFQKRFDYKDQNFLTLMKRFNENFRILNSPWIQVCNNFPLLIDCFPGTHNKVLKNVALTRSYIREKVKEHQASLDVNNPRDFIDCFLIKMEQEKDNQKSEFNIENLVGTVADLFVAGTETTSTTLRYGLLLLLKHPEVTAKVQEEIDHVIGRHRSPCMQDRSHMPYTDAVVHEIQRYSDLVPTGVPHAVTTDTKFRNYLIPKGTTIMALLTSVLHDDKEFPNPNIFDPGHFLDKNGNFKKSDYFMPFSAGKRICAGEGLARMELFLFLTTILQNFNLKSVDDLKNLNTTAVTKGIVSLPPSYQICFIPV
The experiment in a line: in vitro. Particulars: microsomes, pH 7.4.

A short description of data set [5]: Efavirenz plasma pharmacokinetics. Particulars: human, po, 600 mg. The class given is in vivo.
Data set [6] concerns the target T3, CYP2C8. The experiment in a line: Inhibition of CYP2C8. Particulars: pooled HLMs; substrate amodiaquine.
Data set [7] addresses T4, CYP2C8 (Homo sapiens, UniProt P10632, K399R/R139K).
T4 sequence (P10632 1-490 R139K/K399R): T3 sequence (P10632 1-490) with R139K, K399R
The experiment in a line: Inhibition of CYP2C8.

For data set [8], the target named is T1, CYP2C9. The note with it: in vitro study; cited from earlier work.
Data set [9] deals with T5, CYP2A6 (Homo sapiens, UniProt P11509).
T5 sequence (P11509 1-494): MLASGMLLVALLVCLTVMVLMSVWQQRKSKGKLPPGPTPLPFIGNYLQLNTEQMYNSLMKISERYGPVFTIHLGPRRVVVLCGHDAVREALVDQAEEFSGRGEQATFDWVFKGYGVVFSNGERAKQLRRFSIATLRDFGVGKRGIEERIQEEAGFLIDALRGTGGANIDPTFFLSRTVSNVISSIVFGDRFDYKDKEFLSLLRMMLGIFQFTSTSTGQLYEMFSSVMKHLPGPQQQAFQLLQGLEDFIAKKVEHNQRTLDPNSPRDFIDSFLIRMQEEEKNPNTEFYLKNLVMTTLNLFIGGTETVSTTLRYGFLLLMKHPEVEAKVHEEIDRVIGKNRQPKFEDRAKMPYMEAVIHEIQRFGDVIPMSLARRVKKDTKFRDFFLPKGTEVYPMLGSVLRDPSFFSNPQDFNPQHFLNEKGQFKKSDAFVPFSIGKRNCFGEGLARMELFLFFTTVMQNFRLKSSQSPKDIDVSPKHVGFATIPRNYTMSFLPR
The experiment in a line: Inhibition of CYP2A6. The format is in vitro ADME. Particulars: pooled human liver microsomes, pH 7.4, probe coumarin (7-hydroxylation).

Data set [10] addresses expressed CYP2B6. Particulars: cited from earlier work.
Data set [11] deals with CYP3A (Homo sapiens, UniProt P08684). The experiment in a line: Inhibition of CYP3A. The class given is in vitro ADME. Particulars: pooled human liver microsomes, pH 7.4, probe testosterone (6-β hydroxylation), 10 μM, inhibition of CYP3A activity, 50 μM efavirenz, pooled HLMs, 10 μM testosterone.
Data set [12] deals with T6, CYP2B6 (Homo sapiens, UniProt P20813).
T6 sequence (P20813 1-491): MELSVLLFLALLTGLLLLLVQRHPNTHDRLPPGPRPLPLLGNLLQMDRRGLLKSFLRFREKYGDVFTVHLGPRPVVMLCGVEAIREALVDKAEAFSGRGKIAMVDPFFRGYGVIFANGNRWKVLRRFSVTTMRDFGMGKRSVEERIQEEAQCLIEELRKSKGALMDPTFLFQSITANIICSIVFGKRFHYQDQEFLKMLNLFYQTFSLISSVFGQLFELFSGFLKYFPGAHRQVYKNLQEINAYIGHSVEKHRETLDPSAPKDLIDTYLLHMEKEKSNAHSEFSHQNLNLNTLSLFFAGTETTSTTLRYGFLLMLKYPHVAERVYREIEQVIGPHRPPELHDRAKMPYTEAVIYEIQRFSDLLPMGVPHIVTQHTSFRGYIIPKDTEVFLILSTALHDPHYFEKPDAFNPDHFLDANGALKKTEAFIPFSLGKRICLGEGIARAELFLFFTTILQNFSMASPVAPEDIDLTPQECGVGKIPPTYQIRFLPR
Particulars: substrate bupropion.

Data set [13] concerns the target T7, expressed CYP2B6 (Homo sapiens, UniProt P20813).
T7 sequence (P20813 1-491): T6 sequence (P20813 1-491)
The experiment in a line: Inhibition of expressed CYP2B6. The class given is in vitro ADME. Particulars: substrate bupropion.

Data set [14] concerns the target T2, CYP2C19. The data set can be described thus: Inhibition of CYP2C19. The class given is in vitro ADME.
In data set [15] the test system is UGT2B7. The note with it: in vitro; cited from earlier work.
For data set [16], the target named is CYP1A2 (Homo sapiens, UniProt P05177). The data set can be described thus: Inhibition of CYP1A2. Particulars: 50 μM phenacetin.
The subject of data set [17] is CYP isoforms (eight major CYPs except for CYP2B6). The experiment in a line: Time-dependent inhibition of CYP isoforms in pooled HLMs. The format is in vitro ADME, human. Particulars: 50 μM efavirenz.
For data set [18] the following is noted: cited from earlier work.
Data set [19] addresses CYP2D6 (Homo sapiens, UniProt P10635). The data set can be described thus: Inhibition of CYP2D6. The class given is in vitro ADME. The note with it: pooled human liver microsomes, pH 7.4, probe dextromethorphan (O-demethylation).
For data set [20], the system named is CYP2C8. The note with it: expressed CYPs; cited from earlier work.
In data set [21] the target is T8, expressed CYP2C8 (Homo sapiens, UniProt P10632).
T8 sequence (P10632 1-490): T3 sequence (P10632 1-490)
The experiment in a line: Inhibition of expressed CYP2C8. The class given is in vitro ADME.

In data set [22] the target is T1, CYP2C9. The experiment in a line: Inhibition of CYP2C9. The class given is in vitro ADME.
The target in data set [23] is T1, CYP2C9. Particulars: fraction of substrate metabolized by the inhibited CYP pathway (CYP2C9); cited from earlier work.

Numbering of substitutions follows the chain as printed. Read-outs that look alike come from different tables or passages of the source.

T2 sequence (P33261 whole entry): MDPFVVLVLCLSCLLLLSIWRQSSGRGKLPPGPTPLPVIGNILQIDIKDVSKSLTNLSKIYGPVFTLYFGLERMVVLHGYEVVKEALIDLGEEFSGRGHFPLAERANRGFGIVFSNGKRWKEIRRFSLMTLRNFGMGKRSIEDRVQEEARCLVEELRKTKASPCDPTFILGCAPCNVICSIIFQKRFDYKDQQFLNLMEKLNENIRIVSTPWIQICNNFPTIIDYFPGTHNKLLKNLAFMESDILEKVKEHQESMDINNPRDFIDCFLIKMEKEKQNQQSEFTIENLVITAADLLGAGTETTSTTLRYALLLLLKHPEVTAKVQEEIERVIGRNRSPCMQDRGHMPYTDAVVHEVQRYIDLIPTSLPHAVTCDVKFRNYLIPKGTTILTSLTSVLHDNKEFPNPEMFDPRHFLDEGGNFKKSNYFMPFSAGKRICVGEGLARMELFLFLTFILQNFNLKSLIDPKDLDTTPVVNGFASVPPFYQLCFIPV
T1 sequence (P11712 whole entry): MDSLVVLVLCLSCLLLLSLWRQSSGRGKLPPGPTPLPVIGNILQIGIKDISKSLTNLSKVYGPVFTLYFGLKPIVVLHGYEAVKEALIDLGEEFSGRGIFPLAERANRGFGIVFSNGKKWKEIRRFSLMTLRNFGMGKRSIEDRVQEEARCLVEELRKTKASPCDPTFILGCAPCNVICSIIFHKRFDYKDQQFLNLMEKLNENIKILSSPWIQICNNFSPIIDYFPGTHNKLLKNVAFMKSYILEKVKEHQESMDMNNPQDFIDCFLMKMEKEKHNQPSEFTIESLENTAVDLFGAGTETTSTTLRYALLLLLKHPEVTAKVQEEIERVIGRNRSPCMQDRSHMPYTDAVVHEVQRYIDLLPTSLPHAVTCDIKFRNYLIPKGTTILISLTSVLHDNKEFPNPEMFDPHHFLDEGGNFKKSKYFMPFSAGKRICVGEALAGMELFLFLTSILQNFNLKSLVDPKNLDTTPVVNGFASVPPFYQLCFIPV
Sequence of CYP1A2 (P05177 whole entry, canonical isoform): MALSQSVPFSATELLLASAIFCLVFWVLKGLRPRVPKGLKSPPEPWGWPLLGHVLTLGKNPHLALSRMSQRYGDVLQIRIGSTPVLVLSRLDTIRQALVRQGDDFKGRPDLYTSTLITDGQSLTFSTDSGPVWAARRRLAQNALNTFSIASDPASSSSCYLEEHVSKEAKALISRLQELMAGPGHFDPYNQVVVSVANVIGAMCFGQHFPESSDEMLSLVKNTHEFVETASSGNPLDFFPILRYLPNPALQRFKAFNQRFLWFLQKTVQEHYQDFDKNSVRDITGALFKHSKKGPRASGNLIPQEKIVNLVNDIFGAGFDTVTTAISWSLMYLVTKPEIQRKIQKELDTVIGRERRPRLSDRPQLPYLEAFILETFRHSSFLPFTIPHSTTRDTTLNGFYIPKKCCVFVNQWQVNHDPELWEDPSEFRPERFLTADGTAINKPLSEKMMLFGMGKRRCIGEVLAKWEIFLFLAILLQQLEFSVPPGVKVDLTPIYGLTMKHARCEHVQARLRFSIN
Sequence of CYP2D6 (P10635 whole entry): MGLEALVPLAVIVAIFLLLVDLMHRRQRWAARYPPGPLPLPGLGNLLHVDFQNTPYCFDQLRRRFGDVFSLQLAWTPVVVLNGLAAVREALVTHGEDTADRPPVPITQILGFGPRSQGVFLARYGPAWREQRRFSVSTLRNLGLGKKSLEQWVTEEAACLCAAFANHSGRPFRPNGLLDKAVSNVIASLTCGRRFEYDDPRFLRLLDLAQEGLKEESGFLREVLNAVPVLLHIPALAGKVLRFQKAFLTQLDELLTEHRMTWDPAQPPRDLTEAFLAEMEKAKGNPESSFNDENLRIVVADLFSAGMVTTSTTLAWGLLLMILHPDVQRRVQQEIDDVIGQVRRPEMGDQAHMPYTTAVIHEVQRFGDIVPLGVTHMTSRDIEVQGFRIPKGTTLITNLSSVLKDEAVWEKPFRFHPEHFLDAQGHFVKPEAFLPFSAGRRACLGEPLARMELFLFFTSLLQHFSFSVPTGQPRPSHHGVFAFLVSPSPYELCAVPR
Sequence of CYP3A (P08684 2-503): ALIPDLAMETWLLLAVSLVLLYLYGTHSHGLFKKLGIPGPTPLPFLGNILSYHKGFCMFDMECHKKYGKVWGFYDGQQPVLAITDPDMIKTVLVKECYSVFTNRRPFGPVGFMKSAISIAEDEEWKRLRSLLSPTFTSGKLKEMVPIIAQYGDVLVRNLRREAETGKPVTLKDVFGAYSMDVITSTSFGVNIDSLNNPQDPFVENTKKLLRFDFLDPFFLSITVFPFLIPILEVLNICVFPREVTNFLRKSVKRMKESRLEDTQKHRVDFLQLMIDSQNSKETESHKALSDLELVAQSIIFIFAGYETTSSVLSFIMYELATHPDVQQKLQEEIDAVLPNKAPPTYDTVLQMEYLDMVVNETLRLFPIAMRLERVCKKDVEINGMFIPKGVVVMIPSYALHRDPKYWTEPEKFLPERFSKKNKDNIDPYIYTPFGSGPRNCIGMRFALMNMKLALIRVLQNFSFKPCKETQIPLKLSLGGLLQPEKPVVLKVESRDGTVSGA

On to `CC(=O)C[C@@H](c1ccccc1)c1c(O)c2ccccc2oc1=O` [S-Warfarin], for which the “Predicted AUC Ratio” value in [1] is given as 1.7 -2.0.
Take `COc1ccc2[nH]c([S+]([O-])Cc3ncc(C)c(OC)c3C)nc2c1` (stereo not shown) [Omeprazole]: the fm in [2] is 0.87 [26]).
With `CC(NC(C)(C)C)C(=O)c1cccc(Cl)c1` (stereo not shown) [bupropion], in data set [3] (bupropion as CYP2B6 substrate), the Km was 90 to 130 µM.
`O=C1Nc2ccc(Cl)cc2[C@@](C#CC2CC2)(C(F)(F)F)O1` [efavirenz, Efavirenz]: the Ki in data set [4] is 4.78 ± 2.24 µM; in data set [7], 4.8 ± 0.35 µM; in [14], 21.3 ± 2.57 µM; in data set [21], 6.05 ± 2.86 µM; in data set [22], 19.5 ± 2.78 µM. In data set [5], this compound had a Cmax of 4.6 to 8.4 µM. For the same compound, the inhibition model entry is on record as “competitive” in data set [6]; “competitive” in data set [7] (HLMs with CYP2C8*3/*3, substrate amodiaquine); “competitive” in [12] (CMV negative HLMs); “competitive” in data set [12] (pooled HLMs); “competitive” in data set [13]; “competitive” in data set [14] (pooled HLMs, substrate S-mephenytoin). Further, the inhibition model entry is reported as “competitive” in data set [21] (expressed CYP2C8, substrate amodiaquine) and “non-competitive” in data set [22] (pooled HLMs, substrate tolbutamide). Moreover, the half-maximal inhibitory concentration (IC50) in data set [8] is about 15 µM; in data set [20], 4 µM. Moreover, the inhibition at 10 μM in [9] and in data set [19] was under 10% in each case. The values for the inhibition at 50 μM in data set [9] (10 μM), in data set [11] and in data set [19] (10 μM) were under 10%, over 20% and under 10%, respectively. In addition, the “KI value (time-dependent inhibition)” value in [10] was 30 µM. Further, the Km in [3] was 13 to 20 µM. Besides, the “inhibition of UGT2B7” value in data set [15] is reported as “moderate inhibitor”. Further, the “inhibition of CYP1A2 activity” value in data set [16] (efavirenz 10 and 50 μM, pooled HLMs) is “did not indicate that efavirenz inhibits CYP1A2 activity”. For the same compound, the “time-dependent inhibition of CYP activity” value in data set [17] (preincubation for 30 min) is “only marginally inhibited”. In [17] (shorter preincubation times (5-15 min)), the time-dependent inactivation result is “did not show any indication of time-dependent inactivation”. In addition, the “Ka absorption rate constant” value in data set [18] was 0.3 h⁻¹.
Take `O=C1NC(=O)C(c2ccccc2)(c2ccccc2)N1` [Phenytoin]: the “Predicted AUC Ratio” value in data set [1] is reported as 1.7 -2.0. Moreover, the fm in data set [23] is 0.90 [57]).
Regarding `O=C1Nc2c(O)cc(Cl)cc2[C@@](C#CC2CC2)(C(F)(F)F)O1` [8-hydroxyefavirenz], the “inhibition of CYP1A2” value in data set [16] (8-hydroxyefavirenz up to 10 μM (0.5 to 10 μM), pooled HLMs 1 mg/ml, 30 min) is given as ~ 20%.

The record behind these values is paper PMC4075192 (Drug metabolism and pharmacokinetics, 2013).
